Results reported in patent publication US20240208950A1, “COMPOSITIONS AND METHODS FOR TREATMENT OF CERVICAL AND OVARIAN CANCER” (SOUTH DAKOTA BOARD OF REGENTS, priority 2021, published 2024).

Experiments:
SiHa cells [1] = experiment: Cell proliferation assay (MTS), SiHa; assay type: cell-based, human; conditions: 1-20 μM, 24 hours
Method: The effect of Br-ORM on CaSki and SiHa cells proliferation was performed using the MTS assay. Briefly, cells were seeded at a density of 5×10^3 cells per well in 96 well plate and allowed to stand overnight at 37° C. and 5% CO2 incubator. Next day, cells were treated with different concentrations of Br-ORM (1, 5, 10 and 20 μM). DMSO was used as a vehicle for the treatment of control cells. Twenty four hours post-treatment, 20 μL of MTS reagent (5 mg/mL) was added in each well and further incubated the plate for 2 hours in a CO2 incubator. Absorbance was taken after 2 hours at […] (SpectraMax M2 spectrophotometer, Molecular Devices, Sunnyvale, CA, USA). The experiment was performed in triplicates. Results were represented as percent viability with respect to the control group. […]
FIG. 13. […] Cell viability was assessed by MTS assay. […] Bar graphs indicating quantification of colony formation in CaSki (i), and SiHa (ii) cells of cervical cancer with respect to vehicle control. […] Briefly, cervical cancer cells were treated with Br-ORM (10 μM) for 24 hours and the apoptosis inducing effect of Br-ORM was analyzed by Annexin V staining. […] The equal loading of protein in each lane was determined by probing the blots with β-actin antibody (FIG. 13F). […] Br-ORM arrests cell cycle in G1/S phase as determined by flow cytometry. […]

SiHa cells [2] = experiment: Cell invasion assay (Boyden chamber and xCELLigence), SiHa; assay type: cell-based, human
From the text: FIGS. 8A and 8B show the effect of ORM-Br on invasion of CaSki (FIG. 8A) and SiHa (FIG. 8B) cell lines in Boyden chamber and xCELLigence assay. The images represent the invaded cells of control and ORM-Br-treated CaSki and SiHa cells as determined by Boyden Chamber kit. The magnification was at 20 for the images of FIGS. 8A and 8B.

CaSki cells = experiment: Cell cycle analysis by flow cytometry, CaSki; assay type: cell-based, human; conditions: 10 and 15 μM
Method: The effect of Br-ORM on cell cycle analysis was performed by flow cytometry as has described in the art. In brief, approximately 70% confluent cervical cancer cells were treated with Br-ORM (10 and 20 μM) for 24 hours. The cells were trypsinized and washed twice with ice-cold PBS (1×). The cell pellets were resuspended in 50 μL of ice cold PBS (1×) and 450 μL of cold methanol. The cells were washed twice with ice cold PBS (1×), suspended in 500 μL PBS, and incubated with 500 μL RNase (20 μg/mL final concentration) at 37° C. for 1 hour. The cells were chilled over ice for 10 minutes and stained with propidium iodide (50 μg/mL final concentration) for 1 hour and analyzed by flow cytometry (BD Accuri C6; Becton Dickinson, Mountain View, CA, USA). Data was analyzed by using Modfit software.
To examine the effect on cell cycle distribution, cervical cancer cells were treated with Br-ORM (10 and 15 μM) and analyzed by flow cytometry (FIG. 13F(i)-(ii)).

[3] = test system: ovarian cancer cell line A2780; experiment: MTT cell viable assay (cytotoxicity and anti-proliferation); assay type: cell-based; conditions: Homo sapiens
Method: A biological assay was performed to study the potency of ORM-analogs by observing their pharmaceutical effects on living tissue (in vitro) and the effects of these analogs of unknown potency were compared to the effects of the standard (ormeloxifene). An MTT cell viable assay was first conducted to measure the cytotoxicity and anti-proliferation activity of synthesized analogs (Table 2 and FIG. 2).

[4] = test system: HPV16 E6 and E7 transcripts in SiHa cells; experiment: qPCR of HPV E6 and HPV E7 transcripts, SiHa; assay type: cell-based, human; conditions: 18 hours
[5] = test system: CaSki cells derived xenograft tumors; experiment: Orthotopic xenograft mouse model of cervical cancer; assay type: in vivo, female athymic nude mice; conditions: 250 μg/mice intra-tumoral
[6] = three times per week, vs control

COc1ccc2c(c1)OC(C)(C)C(c1ccc(Br)cc1)C2c1ccc(OCCN2CCCC2)cc1 (centres unmarked) [ORM-Br]
cell viability / growth (SiHa cells [1]): inhibits the growth | cell viability / growth (SiHa cells [1]; listed as Br-ORM): dose dependently inhibited the cell viability | cell invasion (SiHa cells [2]): inhibits the invasion | cell cycle distribution (CaSki cells): arrested cell cycle progression of CaSki and SiHa cells at G1/S phase | IC50 [3]: 11.2 µM | HPV16 E6 and E7 transcripts [4]: significant downregulation | tumor volume [5, 6]: significantly (p<0.05) reduced | tumor weight [5, 6]: significantly (p<0.05) reduced | expression of E-cadherin in xenograft tumors (IHC) ([5]; excised tumors): increase in the expression of E-cadherin | expression of miR-200a in excised xenograft tumors (in situ hybridization) ([5]; excised tumors): Increased expression of miR-200a | expression of β-catenin, vimentin, snail, slug, HPV-E6, HPV-E7, and PCNA in xenograft tumors (IHC) ([5]; excised tumors): significant downregulation
